Assays:
[1] = system: PDE4; test: Inhibition of PDE4 activity (method of Bauer and Schwabe, microtitre plates); assay type: biochemical; conditions: measured as −logIC50 (mol/l)
Experimental: The activity test was carried out according to the method of Bauer and Schwabe, which was adapted to microtitre plates (Naunyn-Schmiederberg's Arch. Pharmacol. 311, 193-198, 1980). In this test, the PDE reaction is carried out in the first step. In a second step, the resultant 5′-nucleotide is cleaved to the uncharged nucleoside by a snake venom 5′-nucleotidase from Crotalus Atrox. In the third step, the necleoside is separated from the remaining charged substrate on ion exchange columns. The columns are eluted directly into minivials using 2 ml of 30 mM ammonium formate (pH 6.0), to which a further 2 ml of scintillation fluid is added for counting.
The inhibitory values determined for the compounds according to the invention follow from the following table A which the numbers of the compounds correspond to the numbers of the examples.

melting point	Compound	Inhibition of PDE4 activity, −logIC50 [1]
197 to 199 °C	COc1ccc(C2=NN(C3CC[S+]([O-])CC3)C(=O)C3CC=CCC23)cc1Cl (stereo not drawn) [compound 5, (cis)-4-(3-Chloro4-methoxyphenyl)-2-(1-oxo-hexahydro-1l^4-thiopyran-4-yl)-4a,5,8,8a-tetrahydro-2H-phthalazin-1-one]	8.20 mol/l
–	COc1ccc(C2=NN(C3CCS(=O)(=O)CC3)C(=O)C3CC=CCC23)cc1OC1CCCC1 (stereo not drawn) [compound 10, (cis)-4-(3-Cyclopentyloxy-4-methoxyphenyl)-2-(1,1,-dioxohexahydro-1l^6-thiopyran-4-yl)-4a,5,8,8a-tetrahydro-2H-phthalazin-1-one]	9.43 mol/l
–	COc1ccc(C2=NN(C3CC[S+]([O-])CC3)C(=O)C3CC=CCC23)cc1OC (stereo not drawn) [compound 3, (cis)-4-(3,4-Dimethoxyphenyl)-2-(1-oxo-hexahydro-1l^4-thiopyran-4-yl)-4a,5,8,8a-tetrahydro-2H-phthalazin-1-one]	8.51 mol/l
170 to 171 °C	COc1ccc(C2=NN(C3CCSCC3)C(=O)[C@H]3CC=CC[C@@H]23)cc1Cl (relative stereo) [compound 4, (cis)-4-(3-Chloro-4-methoxyphenyl)-2-(tetrahydrothiopyran-4-yl)-4a,5,8,8a-tetrahydro-2H-phthalazin-1-one]	–
261 to 263 °C	COc1ccc(C2=NN(C3CCS(=O)(=O)CC3)C(=O)C3CC=CCC23)c2c1OC(C)(C)C2 (stereo not drawn) [compound 7, (cis)-4-(2,3-Dihydro-2,2-dimethyl-7-methoxybenzofuran-4-yl)-2-(1,1-dioxohexahydro-1l^6-thiopyran4-yl)-4a,5,8,8a-tetrahydro-2H-phthalazin-1-one]	9.00 mol/l
196 to 198 °C	COc1ccc(C2=NN(C3CCS(=O)(=O)CC3)C(=O)C3CC=CCC23)cc1OC (stereo not drawn) [compound 2, (cis)-4-(3,4-Dimethoxyphenyl)-2-(1,1-dioxohexahydro-1l^6-thiopyran-4-yl)-4a,5,8,8a-tetrahydro-2H-phthalazin-1-one]	8.45 mol/l
163 to 164 °C	COc1ccc(C2=NN(C3CCSCC3)C(=O)[C@H]3CC=CC[C@@H]23)c2c1OC(C)(C)C2 (relative stereo) [compound 1, (cis)-4-(2,3-Dihydro-2,2-dimethyl-7-methoxybenzofuran-4-yl)-2-(tetrahydrothiopyran-4-yl)-4a,5,8,8a-tetrahydro-2H-phthalazin-1-one]	9.34 mol/l
203 to 204 °C	COc1ccc(C2=NN(C3CCS(=O)(=O)CC3)C(=O)C3CC=CCC23)cc1OC [compound 9, (4aS,8aR)-(cis)-4-(3,4-Dimethoxyphenyl)-2-(1,1-dioxohexahydro-1l^6-thiopyran-4-yl)-4a,5,8,8a-tetrahydro-2H-phthalazin-1-one]	9.20 mol/l
–	CCOc1ccc(C2=NN(C3CCS(=O)(=O)CC3)C(=O)C3CC=CCC23)cc1OCC (stereo not drawn) [compound 6, (cis)-4-(3,4-Diethoxyphenyl)-2-(1,1-dioxohexahydro-1l^6-thiopyran-4-yl)-4a,5,8,8a-tetrahydro-2H-phthalazin-1-one]	8.02 mol/l

Source: patent US6846821B2, “Tetrahydrothiopy ranphthalazinone derivatives as PDE4 inhibitors” (Altana Pharma, AG, priority 1999, dated 2005)
